Assay results taken from patent US10844038B2, “1,2-dithiolane compounds useful in neuroprotection, autoimmune and cancer diseases and conditions” (SABILA BIOSCIENCES LLC, priority 2016, dated 2020).
Blank lines part the entries; values can stand above or below the molecule they belong to.

How the values were obtained:
MEK5 = MEK5 (Homo sapiens (Human), UniProt Q13163); experiment: KINOMEscan competition binding assay (Kd); conditions: Table 9, read-out: Kd Values Against Representative MEK5 Kinase: MEK5
Procedure: (§1) KINOMEscan™ is based on a competition binding assay that quantitatively measures the ability of a test compound of the invention to compete with an immobilized, active-site directed ligand. The Kinase assay is performed by combining three components: DNA-tagged kinase; immobilized ligand; and a test compound. The ability of the test compound to compete with the immobilized ligand is measured via quantitative PCR of the DNA tag.
(§2) For most assays, kinase-tagged T7 phage strains were prepared in an E. coli host derived from the BL21 strain. E. coli were grown to log-phase and infected with T7 phage and incubated with shaking at 32° C. until lysis. The lysates were centrifuged and filtered to remove cell debris. The remaining kinases were produced in HEK-293 cells and subsequently tagged with DNA for qPCR detection. Streptavidin-coated magnetic beads were treated with biotinylated small molecule ligands for 30 minutes at room temperature to generate affinity resins for kinase assays. The liganded beads were blocked with excess biotin and washed with blocking buffer (SeaBlock (Pierce), 1% BSA, 0.05% Tween 20, 1 mM DTT) to remove unbound ligand and to reduce nonspecific binding. […] All reactions were performed in polystyrene 96-well plates in a final volume of 0.135 ml. […] The kinase concentration in the eluates was measured by qPCR.

FYN [1] = target: T1, FYN (Homo sapiens (Human), UniProt P06241); experiment: Radioisotope filter binding assay; type: biochemical; conditions: read-out: IC50 Activity Levels Against SRC Family Kinases: FYN
Procedure: (§3) 3. Radioisotope Filter Binding Assay:
(§4) In this assay format, it directly detects the true product without the use of modified substrates or coupling enzymes (Uitdehaag, J. C., et al. Br. J. Pharmacol. 2012, 166, 858-876; Hastie, C. J., et al. Nat. Protoc. 2006, 1, 968-971) according to equation 1. Substrate+[γ−^33P]−ATP→^33P-Substrate+ADP eq 1
(§5) The protocol calls for test compound of the invention to be incubated with kinase, substrate, cofactors, and radio-isotope-labeled ATP (^33P-gamma-ATP). The reaction mixtures are then spotted onto filter papers which bind the radioisotope labeled catalytic product. Unreacted phosphate is removed via washing. The reagents used include base reaction buffer; 20 mM Hepes (pH 7.5), 10 mM MgCl2, 1 mM EGTA, 0.02% Brij35, 0.02 mg/ml BSA, 0.1 mM Na3VO4, 2 mM DTT, 1% DMSO. The reaction procedure include the following steps: (1) prepare indicated substrate in freshly prepared base reaction buffer, (2) deliver any required cofactors to the substrate solution above, (3) deliver indicated kinase into the substrate solution and gently mix, (4) deliver compounds in DMSO into the kinase reaction mixture by Acoustic technology (Echo550; nanoliter range), incubate for 20 minutes at room temperature, (5) deliver ^33P-ATP (specific activity 10 μCi/μL) into the reaction mixture to initiate the reaction, (6) incubate kinase reaction for 2 hours at room temperature, (7) reactions are spotted onto P81 ion exchange paper, (8) detect kinase activity by filter-binding method.

mTOR = mTOR (Homo sapiens (Human), UniProt P42345); experiment: KINOMEscan competition binding assay (Kd); conditions: read-out: Kd Values Against mTOR Kinase: mTOR
Procedure: as §1, §2

BTK = BTK (Homo sapiens (Human), UniProt Q06187); experiment: KINOMEscan competition binding assay (Kd); conditions: read-out: Kd Values Against Representative TEC Family Kinases: BTK
Procedure: as §1, §2

[2] = target: Bruton Tyrosine Kinase (BTK) (Homo sapiens (Human), UniProt Q06187); experiment: Rabbit reticulocyte lysate assay (KinaseSeeker competition binding); conditions: read-out: IC50 Activity Levels Against Bruton Tyrosine Kinase: BTK
Procedure: (§6) 1. Rabbit Reticulocyte Lysate Assay Design:
(§7) KinaseSeeker is a homogeneous competition binding assay where the displacement of an active site dependent probe by an inhibitor is measured by a change in luminescence signal. Luminescence readout translates into a highly sensitive and robust assay with low background and minimal interference from test compounds.
(§8) 10 mM stock solutions of test compounds were serially diluted in DMSO to make assay stocks. Prior to initiating IC50 determinations, the test compounds were evaluated for false positive against split-luciferase.
(§9) Each test compound was screened in duplicate against target kinase at 7 different concentrations. For kinase assays, Cfluc-kinase was translated along with Fos-Nfluc using a cell-free system (rabbit reticulocyte lysate) at 30° C. for 90 min. 24 uL aliquot of this lysate containing either 1 uL of DMSO (for no-inhibitor control) or compound solution in DMSO was incubated for 30 minutes at room temperature followed by 1 hour in presence of a kinase specific probe. 80 uL of luciferin assay reagent was added to each solution and luminescence was immediately measured on a luminometer.
(§10) The % Inhibition and % Activity Remaining was calculated using the following equation: % Inhibition=[(ALUControl−ALUSample)/ALUControl]×100 % Activity Remaining=100−% Inhibition
(§11) The % Activity was plotted against compound concentration and the IC50 was determined for each compound using a 7-point curve (Jester, B. W.; et. al. J. Am. Chem. Soc. 2010, 132, 11727-11735. Jester, B. W., et. al. J. Med. Chem. 2012, 55, 1526-1537). Biological activity of representative compounds of the disclosure are described in Table 5.

BRAF = BRAF (Homo sapiens (Human), UniProt P15056); experiment: KINOMEscan competition binding assay (Kd); conditions: read-out: Kd Values Against MAPK Pathway Kinases: BRAF
Procedure: as §1, §2

mTor/FRAP1 = mTor/FRAP1 (Homo sapiens (Human), UniProt P42345); experiment: Radioisotope filter binding assay; type: biochemical; conditions: read-out: IC50 Activity Levels Against Various PI3K and mTor Kinases: mTor/FRAP1
Procedure: as §3, §4, §5

PI3K β = PI3K β (Homo sapiens (Human), UniProt P42338); experiment: Radioisotope filter binding assay; type: biochemical; conditions: read-out: IC50 Activity Levels Against Various PI3K and mTor Kinases: PI3K β
Procedure: as §3, §4, §5

PI3K α = PI3K α (Homo sapiens (Human), UniProt P42336); experiment: Radioisotope filter binding assay; type: biochemical; conditions: read-out: IC50 Activity Levels Against Various PI3K and mTor Kinases: PI3K α
Procedure: as §3, §4, §5

PI3K γ = PI3K γ (Homo sapiens (Human), UniProt P48736); experiment: Radioisotope filter binding assay; type: biochemical; conditions: read-out: IC50 Activity Levels Against Various PI3K and mTor Kinases: PI3K γ
Procedure: as §3, §4, §5

FYN [3] = target: T1, FYN; experiment: Rabbit reticulocyte lysate assay (KinaseSeeker competition binding); conditions: read-out: % Inhibition Against SRC Family Kinases: FYN
Procedure: as §6, §7, §8, §9, §10, §11

YES1 = YES1 (Homo sapiens (Human), UniProt P07947); experiment: as above; conditions: at 1 μM, read-out: % Inhibition Against SRC Family Kinases: YES1
Procedure: as §6, §7, §8, §9, §10, §11

HCK = HCK (Homo sapiens (Human), UniProt P08631); experiment: as above; conditions: at 1 μM, read-out: % Inhibition Against SRC Family Kinases: HCK
Procedure: as §6, §7, §8, §9, §10, §11

SRC = SRC (Homo sapiens (Human), UniProt P12931); experiment: as above; conditions: at 1 μM, read-out: % Inhibition Against SRC Family Kinases: SRC
Procedure: as §6, §7, §8, §9, §10, §11

LYN = LYN (Homo sapiens (Human), UniProt P07948); experiment: as above; conditions: read-out: % Inhibition Against SRC Family Kinases: LYN
Procedure: as §6, §7, §8, §9, §10, §11

CSK = CSK (Homo sapiens (Human), UniProt P41240); experiment: as above; conditions: read-out: % Inhibition Against SRC Family Kinases: CSK
Procedure: as §6, §7, §8, §9, §10, §11

FGR = FGR (Homo sapiens (Human), UniProt P09769); experiment: as above; conditions: at 1 μM, read-out: % Inhibition Against SRC Family Kinases: FGR
Procedure: as §6, §7, §8, §9, §10, §11

Sequence of MEK5 (Q13163 whole entry): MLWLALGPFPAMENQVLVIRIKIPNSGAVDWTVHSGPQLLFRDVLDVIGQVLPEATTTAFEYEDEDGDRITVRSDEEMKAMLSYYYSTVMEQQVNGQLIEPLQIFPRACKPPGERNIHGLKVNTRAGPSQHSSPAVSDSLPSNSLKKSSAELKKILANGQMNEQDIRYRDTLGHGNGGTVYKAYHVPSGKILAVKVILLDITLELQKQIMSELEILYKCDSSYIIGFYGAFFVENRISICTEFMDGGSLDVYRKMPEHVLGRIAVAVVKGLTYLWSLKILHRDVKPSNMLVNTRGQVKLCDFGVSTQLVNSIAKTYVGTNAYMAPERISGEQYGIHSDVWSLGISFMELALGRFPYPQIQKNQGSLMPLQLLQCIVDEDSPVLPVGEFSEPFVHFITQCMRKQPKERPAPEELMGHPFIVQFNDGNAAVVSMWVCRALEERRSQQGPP
T1 sequence (P06241 whole entry): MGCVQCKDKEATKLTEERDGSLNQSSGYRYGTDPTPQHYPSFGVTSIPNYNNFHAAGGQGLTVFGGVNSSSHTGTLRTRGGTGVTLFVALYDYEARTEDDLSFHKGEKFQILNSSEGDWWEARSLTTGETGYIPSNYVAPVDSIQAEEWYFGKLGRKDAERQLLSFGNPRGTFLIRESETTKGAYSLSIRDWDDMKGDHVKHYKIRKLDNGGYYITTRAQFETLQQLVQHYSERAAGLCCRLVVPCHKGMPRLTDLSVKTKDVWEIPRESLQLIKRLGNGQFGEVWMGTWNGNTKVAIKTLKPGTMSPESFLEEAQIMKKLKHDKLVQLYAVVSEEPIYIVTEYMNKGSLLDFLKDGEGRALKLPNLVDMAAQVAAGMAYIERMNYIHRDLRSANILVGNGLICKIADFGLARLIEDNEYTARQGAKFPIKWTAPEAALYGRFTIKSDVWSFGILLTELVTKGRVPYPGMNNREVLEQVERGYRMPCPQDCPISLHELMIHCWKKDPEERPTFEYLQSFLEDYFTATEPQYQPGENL
Sequence of BTK (Q06187 whole entry): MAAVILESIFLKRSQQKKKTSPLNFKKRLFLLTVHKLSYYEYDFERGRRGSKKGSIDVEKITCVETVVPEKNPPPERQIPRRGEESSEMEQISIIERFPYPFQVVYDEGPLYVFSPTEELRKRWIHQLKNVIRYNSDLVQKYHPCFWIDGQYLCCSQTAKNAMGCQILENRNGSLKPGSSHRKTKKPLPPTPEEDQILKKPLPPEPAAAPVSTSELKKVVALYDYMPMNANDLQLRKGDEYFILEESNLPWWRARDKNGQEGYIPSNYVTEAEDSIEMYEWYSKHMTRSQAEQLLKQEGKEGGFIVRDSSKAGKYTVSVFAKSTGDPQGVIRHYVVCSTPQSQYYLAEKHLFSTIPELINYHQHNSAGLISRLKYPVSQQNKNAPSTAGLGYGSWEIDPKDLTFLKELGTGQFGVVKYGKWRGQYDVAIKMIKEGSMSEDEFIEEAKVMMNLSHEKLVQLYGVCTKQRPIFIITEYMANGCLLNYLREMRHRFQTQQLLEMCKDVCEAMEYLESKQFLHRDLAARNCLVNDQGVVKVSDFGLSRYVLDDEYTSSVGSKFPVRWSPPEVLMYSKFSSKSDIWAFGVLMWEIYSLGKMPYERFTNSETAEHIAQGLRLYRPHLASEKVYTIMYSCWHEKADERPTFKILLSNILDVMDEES
Sequence of PI3K γ (P48736 whole entry): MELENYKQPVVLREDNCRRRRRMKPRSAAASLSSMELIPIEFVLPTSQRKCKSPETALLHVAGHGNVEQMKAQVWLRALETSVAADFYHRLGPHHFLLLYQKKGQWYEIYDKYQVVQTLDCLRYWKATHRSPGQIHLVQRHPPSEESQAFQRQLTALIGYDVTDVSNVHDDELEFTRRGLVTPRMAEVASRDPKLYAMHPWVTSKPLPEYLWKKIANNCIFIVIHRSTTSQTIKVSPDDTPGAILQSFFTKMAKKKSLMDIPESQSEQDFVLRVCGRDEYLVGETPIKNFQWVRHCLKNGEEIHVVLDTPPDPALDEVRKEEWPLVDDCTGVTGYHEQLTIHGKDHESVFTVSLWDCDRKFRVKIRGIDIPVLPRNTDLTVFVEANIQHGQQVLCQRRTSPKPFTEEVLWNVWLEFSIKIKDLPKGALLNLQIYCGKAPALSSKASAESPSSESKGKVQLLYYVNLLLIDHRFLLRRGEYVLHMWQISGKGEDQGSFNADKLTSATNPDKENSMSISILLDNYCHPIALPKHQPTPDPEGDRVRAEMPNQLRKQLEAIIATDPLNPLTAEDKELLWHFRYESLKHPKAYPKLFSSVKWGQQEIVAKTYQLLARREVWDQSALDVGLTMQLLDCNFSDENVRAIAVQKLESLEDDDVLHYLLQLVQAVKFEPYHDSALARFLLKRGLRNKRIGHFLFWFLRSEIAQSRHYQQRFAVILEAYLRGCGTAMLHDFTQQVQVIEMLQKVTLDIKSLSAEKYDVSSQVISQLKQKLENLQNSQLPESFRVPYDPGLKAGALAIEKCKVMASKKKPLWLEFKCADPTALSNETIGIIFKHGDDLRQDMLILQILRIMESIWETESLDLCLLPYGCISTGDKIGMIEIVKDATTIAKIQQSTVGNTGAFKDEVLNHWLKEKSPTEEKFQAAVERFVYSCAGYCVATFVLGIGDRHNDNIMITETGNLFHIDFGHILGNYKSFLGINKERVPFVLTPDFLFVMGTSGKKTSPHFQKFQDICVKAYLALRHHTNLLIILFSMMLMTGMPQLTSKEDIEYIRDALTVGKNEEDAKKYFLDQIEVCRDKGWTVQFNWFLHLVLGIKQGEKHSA
Sequence of LYN (P07948 whole entry): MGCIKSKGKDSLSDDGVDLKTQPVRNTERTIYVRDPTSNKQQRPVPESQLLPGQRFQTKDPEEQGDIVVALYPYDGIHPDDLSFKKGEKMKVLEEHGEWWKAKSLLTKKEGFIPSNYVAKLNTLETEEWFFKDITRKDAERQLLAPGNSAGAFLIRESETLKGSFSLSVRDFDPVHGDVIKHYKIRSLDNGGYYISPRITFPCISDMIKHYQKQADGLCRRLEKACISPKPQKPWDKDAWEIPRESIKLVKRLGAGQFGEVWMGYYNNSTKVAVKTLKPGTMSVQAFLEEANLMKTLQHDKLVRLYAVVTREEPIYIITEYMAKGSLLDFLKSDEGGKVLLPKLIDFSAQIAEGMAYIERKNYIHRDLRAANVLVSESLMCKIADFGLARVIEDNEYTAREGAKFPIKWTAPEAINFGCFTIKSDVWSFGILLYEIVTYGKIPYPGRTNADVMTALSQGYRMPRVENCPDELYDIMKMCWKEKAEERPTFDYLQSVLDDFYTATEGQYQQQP
Sequence of FGR (P09769 whole entry): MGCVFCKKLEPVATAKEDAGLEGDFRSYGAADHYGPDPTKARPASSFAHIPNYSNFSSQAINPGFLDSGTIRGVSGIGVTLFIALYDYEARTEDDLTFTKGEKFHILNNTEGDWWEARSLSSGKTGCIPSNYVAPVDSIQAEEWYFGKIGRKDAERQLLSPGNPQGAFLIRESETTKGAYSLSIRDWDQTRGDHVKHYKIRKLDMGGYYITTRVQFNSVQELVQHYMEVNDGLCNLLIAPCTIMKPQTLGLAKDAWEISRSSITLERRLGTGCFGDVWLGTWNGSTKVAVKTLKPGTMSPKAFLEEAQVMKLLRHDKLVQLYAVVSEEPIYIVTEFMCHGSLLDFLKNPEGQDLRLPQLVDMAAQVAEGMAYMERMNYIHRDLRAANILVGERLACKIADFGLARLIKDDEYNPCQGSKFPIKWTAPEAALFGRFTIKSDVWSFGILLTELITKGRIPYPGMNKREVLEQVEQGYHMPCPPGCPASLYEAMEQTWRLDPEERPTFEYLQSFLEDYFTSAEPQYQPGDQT
Sequence of YES1 (P07947 whole entry): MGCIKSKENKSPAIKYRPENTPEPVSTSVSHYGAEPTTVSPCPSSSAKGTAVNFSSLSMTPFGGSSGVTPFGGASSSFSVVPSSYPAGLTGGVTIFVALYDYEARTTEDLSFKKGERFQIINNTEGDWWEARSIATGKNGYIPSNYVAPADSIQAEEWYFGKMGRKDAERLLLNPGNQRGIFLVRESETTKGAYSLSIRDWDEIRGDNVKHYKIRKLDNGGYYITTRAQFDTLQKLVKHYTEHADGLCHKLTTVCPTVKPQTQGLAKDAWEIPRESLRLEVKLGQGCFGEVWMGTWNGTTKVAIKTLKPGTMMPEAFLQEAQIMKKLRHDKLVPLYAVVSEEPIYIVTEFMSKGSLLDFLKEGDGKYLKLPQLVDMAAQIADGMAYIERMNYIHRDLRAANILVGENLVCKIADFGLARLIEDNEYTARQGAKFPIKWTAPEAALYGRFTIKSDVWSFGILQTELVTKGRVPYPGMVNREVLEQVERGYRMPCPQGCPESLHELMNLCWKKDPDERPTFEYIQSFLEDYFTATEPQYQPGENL
Sequence of Bruton Tyrosine Kinase (BTK) (Q06187 whole entry): as the sequence (Q06187 whole entry) above
Sequence of HCK (P08631 whole entry): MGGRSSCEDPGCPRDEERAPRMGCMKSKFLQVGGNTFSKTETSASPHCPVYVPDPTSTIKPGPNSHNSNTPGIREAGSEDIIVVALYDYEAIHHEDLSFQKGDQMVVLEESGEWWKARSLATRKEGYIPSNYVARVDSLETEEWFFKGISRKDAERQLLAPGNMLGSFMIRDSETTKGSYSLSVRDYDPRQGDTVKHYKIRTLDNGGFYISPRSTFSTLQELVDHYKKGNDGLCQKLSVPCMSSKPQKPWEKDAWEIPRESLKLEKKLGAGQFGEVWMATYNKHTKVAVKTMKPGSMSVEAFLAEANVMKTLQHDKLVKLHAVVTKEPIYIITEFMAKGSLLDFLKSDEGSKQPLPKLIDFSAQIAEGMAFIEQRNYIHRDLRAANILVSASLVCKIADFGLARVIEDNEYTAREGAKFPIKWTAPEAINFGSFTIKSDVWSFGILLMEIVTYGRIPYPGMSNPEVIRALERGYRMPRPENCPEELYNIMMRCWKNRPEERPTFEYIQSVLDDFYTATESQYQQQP

SMILES: Nc1ncnc2c1c(-c1ccccc1)nn2C[C@@H]1SSC[C@H]1O (relative stereo) [Example 28, trans 3-((4-Amino-3-phenyl-1H-pyrazolo[3,4-d]pyrimidin-1-yl)methyl)-1,2-dithiolan-4-ol]
- Kd (MEK5): 5 to 99 nM

SMILES: Nc1ncnc2c1c(-c1ccc(Cl)cc1)nn2C[C@@H]1SSC[C@H]1O (relative stereo) [Example 30, trans 3-((4-Amino-3-(4-chlorophenyl)-1H-pyrazolo[3,4-d]pyrimidin-1-yl)methyl)-1,2-dithiolan-4-ol]
- Kd (MEK5): < 5 nM

SMILES: Nc1ncnc2c1c(C#Cc1ccccc1)nn2C[C@@H]1SSC[C@H]1O (relative stereo) [Example 52, trans 3-(4-Amino-3-(phenylethynyl)-1H-pyrazolo[3,4-d]pyrimidin-1-yl)methyl-1,2-dithiolan-4-ol]
- IC50 (mTor/FRAP1): 1000 to 10000 nM

SMILES: Nc1nc2cc(-c3nn(C[C@@H]4SSC[C@H]4OC(=O)c4ccccc4)c4ncnc(N)c34)ccc2o1 (relative stereo) [Example 55, trans 3-((4-Amino-3-(2-aminobenzo[d]oxazol-5-yl)-1H-pyrazolo[3,4-d]pyrimidin-1-yl)methyl)-1,2-dithiolan-4-yl benzoate]
- IC50 (mTor/FRAP1): 5 to 99 nM
- IC50 (PI3K β): 1000 to 10000 nM
- IC50 (PI3K α): 100 to 999 nM
- IC50 (PI3K γ): 1000 to 10000 nM

SMILES: COc1ccc(-c2nn(CC3SSCC3O)c3ncnc(N)c23)cc1 (stereo not shown) [36 B.]
- Kd (mTOR): 100 to 999 nM
- Kd (MEK5): 5 to 99 nM

SMILES: Nc1ncnc2c1c(C#Cc1ccccc1)nn2CC1SSCC1OC(=O)c1ccccc1 (stereo not drawn) [Example 51, trans 3-((4-Amino-3-(phenylethynyl)-1H-pyrazolo[3,4-d]pyrimidin-1-yl)methyl-1,2-dithiolan-4-yl benzoate]
- IC50 (mTor/FRAP1): 1000 to 10000 nM

Now from value to molecule:

- IC50 (FYN [1]): 5 to 99 nM
- Kd (mTOR): 1000 to 10000 nM
- Kd (MEK5): < 5 nM
- Kd (BTK): 5 to 99 nM
SMILES: CO[C@@H]1CSS[C@H]1Cn1nc(-c2ccc(Oc3ccccc3)cc2)c2c(N)ncnc21 (relative stereo) [Example 37, trans 1-((4-Methoxy-1,2-dithiolan-3-yl)methyl)-3-(4-phenoxyphenyl)-1H-pyrazolo[3,4-d]pyrimidin-4-amine]

- Kd (MEK5): < 5 nM
- Kd (BTK): 5 to 99 nM
SMILES: CO[C@H]1CSS[C@H]1Cn1nc(-c2ccc(Oc3ccccc3)cc2)c2c(N)ncnc21 (relative stereo) [Example 38, cis 1-((4-Methoxy-1,2-dithiolan-3-yl)methyl)-3-(4-phenoxyphenyl)-1H-pyrazolo[3,4-d]pyrimidin-4-amine]

- Kd (MEK5): 5 to 99 nM
- Kd (BTK): 1000 to 10000 nM
SMILES: Nc1ncnc2c1c(-c1ccc(Oc3ccccc3)cc1)nn2C[C@@H]1SSC[C@H]1OCc1ccccc1 (relative stereo) [Example 39, trans 1-((4-(Benzyloxy)-1,2-dithiolan-3-yl)methyl)-3-(4-phenoxyphenyl)-1H-pyrazolo[3,4-d]pyrimidin-4-amine]

- IC50 (FYN [1]): 1000 to 10000 nM
- Kd (MEK5): 5 to 99 nM
- Kd (BTK): 100 to 999 nM
SMILES: Nc1ncnc2c1c(-c1ccc(Oc3ccccc3)cc1)nn2C[C@@H]1SSC[C@@H]1OCc1ccccc1 (relative stereo) [Example 40, cis 1-((4-(Benzyloxy)-1,2-dithiolan-3-yl)methyl)-3-(4-phenoxyphenyl)-1H-pyrazolo[3,4-d]pyrimidin-4-amine]

- IC50 [2]: 100 to 999 nM
- Kd (BRAF): 1000 to 10000 nM
- Kd (BTK): 5 to 99 nM
SMILES: Nc1ncnc2c1c(-c1ccc(Oc3ccccc3)cc1)nn2C[C@@H]1SSC[C@H]1O (relative stereo) [Example 42, trans 3-((4-Amino-3-(4-phenoxyphenyl)-1H-pyrazolo[3,4-d]pyrimidin-1-yl)methyl)-1,2-dithiolan-4-ol]

- Kd (BTK): 5 to 99 nM
SMILES: Nc1ncnc2c1c(-c1ccc(Oc3ccccc3)cc1)nn2C[C@@H]1SSC[C@@H]1O (relative stereo) [Example 45, cis 3-((4-Amino-3-(4-phenoxyphenyl)-1H-pyrazolo[3,4-d]pyrimidin-1-yl)methyl)-1,2-dithiolan-4-ol]

- inhibition at 1 µM (FYN [3]): 33%
- inhibition at 1 µM (YES1): 90%
- inhibition at 1 µM (HCK): 73%
- inhibition at 1 µM (SRC): 49%
- inhibition at 1 µM (LYN): 33%
- inhibition at 1 µM (CSK): 50%
- inhibition at 1 µM (FGR): 84%
SMILES: Nc1ncnc2c1c(-c1ccc(Oc3ccccc3)cc1)nn2C[C@@H]1SSC[C@H]1O [Example 43 A., (3S,4R)-3-((4-Amino-3-(4-phenoxyphenyl)-1H-pyrazolo[3,4-d]pyrimidin-1-yl)methyl)-1,2-dithiolan-4-ol]

- IC50 (FYN [1]): 5 to 99 nM
SMILES: Nc1ncnc2c1c(-c1ccc(Oc3ccccc3F)cc1)nn2CC1SSCC1OC(=O)c1ccccc1 (stereo not drawn) [Example 62, trans 3-((4-Amino-3-(4-(2-fluorophenoxyphenyl)-1H-pyrazolo[3,4-d]pyrimidin-1-yl)methyl)-1,2-dithiolan-4-yl benzoate]

- IC50 (FYN [1]): 5 to 99 nM
SMILES: Nc1ncnc2c1c(-c1ccc(Oc3ccccc3F)cc1)nn2CC1SSCC1O (stereo not drawn) [Example 63, trans 3-((4-Amino-3-(4-(2-fluorophenoxyphenyl)-1H-pyrazolo[3,4-d]pyrimidin-1-yl)methyl)-1,2-dithiolan-4-ol]
